{
  "source": "patent US20230212571A1",
  "about": "“COMPOSITIONS AND METHODS FOR DELIVERING POLYNUCLEOTIDES” (NeOnc Technologies, Inc., priority 2020, published 2023)",
  "key": {"[1]": {"system": "AVM-BEC", "conditions": "previous results from our laboratory (Ferreira 2014); cited from earlier work"}, "[2]": {"system": "AVM-BEC", "format": "cell-based", "procedure": "The apoptotic and necrotic cell death was measured by flow cytometry using PI/Annexin V-Alexa Fluor 488 (ThermoFisher Scientific), following the manufacturer's instructions. After 24 h-treatments, cells were harvested, washed with cold PBS, and suspended in Annexin Binding Buffer (ThermoFisher Scientific) at a concentration of 1×10^6 cells/mL. Following addition of Annexin V and PI, cells were incubated at room temperature for 15 min in the ? dark, and additional 400 μL of 1× binding buffer was added to each sample. Positive controls of cell death were obtained treating cells with 50% ethanol. Ten thousand cells/sample were analyzed using a BD LSRII flow cytometer with the proper compensation controls and the FlowJo_V10 analysis software.\nCells were collected and analyzed for apoptosis, while supernatants were collected and analyzed for necrosis (Cell Death Detection ELISA^PLUS), and for PAI-1, VEGF (Quantikine ELISA Kit, R&D Systems) and TGF-β (Proteintech) protein content, following the manufacturers' instructions. Absorbance was measured using a Fluostar Omega microplate reader (BMG Labtech). Data were normalized to kit controls and number of producing cells."}, "[3]": {"system": "BMP4 3′UTR", "assay": "BMP4 3′UTR luciferase reporter in ECs", "format": "cell-based, human", "conditions": "vs untreated or scramble microRNA, n=6", "procedure": "Plasmid constructs pcDNA3-ALK2^WT (Addgene #80870) and pcDNA3-ALK2^Q207D (Addgene #80871) were a gift from Aristidis Moustakas^7. (Meyer B, Schaller C, Frenkel C, Ebeling B, Schramm J. Distributions of local oxygen saturation and its response to changes of mean arterial blood pressure in the cerebral cortex adjacent to arteriovenous malformations. Stroke. 1999; 30(12):2623-2630) 10^4 AVM-BEC were seeded 24 h before transfection. The plasmid vector containing the 3′ untranslated region (3′UTR) of human BMP4, pRP [Exp]-Puro-CMV>Luciferase:{hBMP4_3′UTR}, was constructed and packaged by VectorBuilder. The vector ID is VB200205-1078zdv, which can be used to retrieve detailed information about the vector on vectorbuilder.com. Transient transfections were performed with Lipofectamine RNAiMax (Thermo Fisher Scientific) according to the manufacturer's instructions. After 4 h, medium was replaced by fresh medium containing microRNA.\nFor the experiments regarding the direct binding of miR-18a to BMP4 (information about the plasmid was included in Methods), the luciferase activity of the hBMP4 3′UTR was read in a Varioskan™ LUX multimode microplate reader (Thermo Fisher Scientific)."}, "[4]": {"system": "Mgp^−/− mouse model of AVM", "assay": "In vivo computed tomography angiography (CTA) of brain vasculature", "procedure": "In vivo ultra-high-resolution computed tomography angiography (CTA) was performed to study changes in neurovascular architecture like methods described previously. (Mukundan S, Jr., […], Badea C T, et al. A liposomal nanoscale contrast agent for preclinical CT in mice. AJR Am J Roentgenol. 2006; 186(2):300-307) ([…], Rendon D, et al. Ultra-High-Resolution In vivo Computed Tomography Imaging of Mouse Cerebrovasculature Using a Long Circulating Blood Pool Contrast Agent. Scientific reports. 2015; 5:10178). Briefly, mice were anesthetized using 3-4% isoflurane, positioned on a CT cradle and maintained at 1-1.5% isoflurane delivered via nose cone. Mice were intravenously injected a long circulating liposomal-iodine blood pool contrast agent (2.2 g/kg body weight) for CTA^8,9 and scanned on a small animal micro-CT scanner Rigaku CT Lab GX90-1-E. The following scan parameters were used: High Resolution Scan Mode, 70 kVp, 114 uA, 10 mm FOV, 1440 projections, 20 μm voxel size, 14 min scan time. All animal protocols were approved by the USC's Institutional Animal Care and Use Committee (IACUC) and strictly adhered to. MiR-18a was co-administered with Ago-2 (0.0008 nmol/mouse) to increase stability and cellular uptake^9 (Ferreira R, Santos T, Amar A, et al. Argonaute-2 promotes miR-18a entry in human brain endothelial cells. J Am Heart Assoc. 2014; 3(3):e000968). (FIG. 9). Details about randomization, blinding, group size and inclusion/exclusion criteria have been included in Methods. […] The vascular data was quantified using ImageJ. […] The pixels were analyzed as particles and normalized to results from the wildtype mice (WT, Mgp^+/+)."}},
  "data": [
    {"substance": "hsa-miR-18a-5p (UAGGUGCAUCUAGUGCAGAUAG; chemistry not given here; listed as Homo sapiens) [small non-coding RNA molecule involved in post-transcriptional regulation of gene expression; Dharmacon]", "values": [
      {"measurement": "TSP-1 release by AVM-BECs (ELISA of cell supernatants)", "setting": "[1]", "result": "induces TSP-1 release"},
      {"measurement": "cell death (apoptosis, necrosis)", "setting": "[2]", "result": "does not increase cell death"},
      {"measurement": "BMP4-3′-UTR-Luc activity", "setting": "[3]", "result": "significantly (P<0.001) decreased"},
      {"measurement": "AzACA vessel density compared to healthy wildtype mice", "setting": "[4]; 0.08 nmol/mouse IN daily for 2-weeks with Ago-2", "result": "92-94%"},
      {"measurement": "brain vasculature and leakage (CTA)", "setting": "[4]; Mgp^−/− mice, IN 2-weeks", "result": "normalized"},
      {"measurement": "calcifications found in carotids", "setting": "[4]; Mgp^−/− mice, IN 2-weeks", "result": "no effect"}
    ]}
  ]
}
